In patent US9365563B2, “TRPV1 antagonists including dihydroxy substituent and uses thereof” (Purdue Pharma L.P., priority 2007, dated 2016):

What was measured:
Aqueous solubility = type: physicochemical
human TRPV1 = human TRPV1 (Homo sapiens (Human), UniProt Q8NER1); assay: Capsaicin-based assay, Protocol 2 (hCAP-CHO); type: cell-based; conditions: TRPV1/CHO cells, 100 nM capsaicin; mean ± SEM; read-out: TRPV1 IC50 Potency Human Capsaicin CHO (hCAP-CHO)
Excerpt: The TRPV1/CHO cell line was generated as described below. […] The resulting PCR products were purified from agarose gels using Gel Band Purification Kit (GE Healthcare Bioscience) and were subcloned into pCR-Blunt vector (Invitrogen). The cloned cDNA was fully sequenced using a fluorescent dye-terminator reagent (BigDye Terminator ver3.1 Cycle Sequencing Kit, Applied Biosystems) and ABI Prism 3100 genetic analyzer (Applied Biosystems). The pCR-Blunt vector containing the hTRPV1 cDNA was subjected to restriction digestion with EcoR1. The restriction fragment was subcloned into expression vector pcDNA3.1(-) (Invitrogen) and named pcDNA3.1(-)-hVR1 plasmid. The sequence of the cDNA encoding TRPV1 is available at GenBank accession number AJ277028. […] The cells were transfected with the pcDNA3.1(-)-hVR1 plasmid using FuGENE6 (Roche) according to the manufacturer's protocol. 24 hr after transfection, neomycin-resistant cells were selected using 1 mg/mL G418 (Nacalai Tesque). […] The cells expressing hTRPV1 were cultured in the growth medium supplemented with 1 mg/mL G418. […] Subsequently, the cells were loaded by incubation in 0.1 mL of wash buffer containing Fluo-4 at 3 μM final concentration. After 1 hour, the cells were washed twice with 0.2 mL wash buffer and resuspended in 0.1 mL wash buffer. The plates were then transferred to a Fluorescence Imaging Plate Reader (Molecular Devices). Fluorescence intensity was monitored for 15 seconds to establish a baseline. […] The final concentration of the compound was adjusted to range from 100 μM to 1.5625 μM. […] Data were collected over the entire time course and analyzed using Excel and the curve-fitting formula GraphPad Prism.

[1] = Plasma concentration after administration to an animal; type: in vivo
TRPV1 receptor = TRPV1 receptor (Rattus norvegicus (Rat), UniProt O35433); assay: Capsaicin-induced eye wipe test; type: in vivo; conditions: for number of capsaicin-induced eye wipes: pre-administration value 24
Protocol: Each experiment uses rats weighing between 200-260 g at the start of the experiment. The rats are group-housed and have free access to food and water at all times, except prior to oral administration of a compound of formula I when food is removed for 16 hours before dosing. A control group acts as a comparison to rats treated with a compound of formula I. The control group is administered the carrier for the compound of formula I. The volume of carrier administered to the control group is the same as the volume of carrier and compound of formula I administered to the test group.
To assess the effect of compounds of formula I on TRPV1 receptor-mediated pain, the capsaicin-induced eye wipe test is used (N. R. Gavva et al., “AMG 9810 [(E)-3-(4-t-Butylphenyl)-N-(2,3-dihydrobenzo[b][1,4]dioxin-6-yl)acrylamide], a Novel Vanilloid Receptor 1 (TRPV1) Antagonist with Antihyperalgesic Properties”, J. Pharmacol. Exp. Ther. 313:474-484 (2005)). The eye wipe test is a reliable high-throughput test of the effect of TRPV1 antagonists. Rats are given a single injection of 1, 3, 10 or 30 mg/kg of either a compound of formula I; 30 mg/kg of a control selected from Celebrex, indomethacin or naproxen; or carrier. At 1, 3 or 5 hours after drug administration, […] of a 100 μM capsaicin solution (in 10% EtOH/PBS) is instilled in one eye of each animal with a pipette. The number of forelimb movements (touching or wiping of the capsaicin-treated eye) are counted during a 2 minute period following instillation of capsaicin into the eye.

Chain of human TRPV1 (Q8NER1 whole entry, the tested form may be a part): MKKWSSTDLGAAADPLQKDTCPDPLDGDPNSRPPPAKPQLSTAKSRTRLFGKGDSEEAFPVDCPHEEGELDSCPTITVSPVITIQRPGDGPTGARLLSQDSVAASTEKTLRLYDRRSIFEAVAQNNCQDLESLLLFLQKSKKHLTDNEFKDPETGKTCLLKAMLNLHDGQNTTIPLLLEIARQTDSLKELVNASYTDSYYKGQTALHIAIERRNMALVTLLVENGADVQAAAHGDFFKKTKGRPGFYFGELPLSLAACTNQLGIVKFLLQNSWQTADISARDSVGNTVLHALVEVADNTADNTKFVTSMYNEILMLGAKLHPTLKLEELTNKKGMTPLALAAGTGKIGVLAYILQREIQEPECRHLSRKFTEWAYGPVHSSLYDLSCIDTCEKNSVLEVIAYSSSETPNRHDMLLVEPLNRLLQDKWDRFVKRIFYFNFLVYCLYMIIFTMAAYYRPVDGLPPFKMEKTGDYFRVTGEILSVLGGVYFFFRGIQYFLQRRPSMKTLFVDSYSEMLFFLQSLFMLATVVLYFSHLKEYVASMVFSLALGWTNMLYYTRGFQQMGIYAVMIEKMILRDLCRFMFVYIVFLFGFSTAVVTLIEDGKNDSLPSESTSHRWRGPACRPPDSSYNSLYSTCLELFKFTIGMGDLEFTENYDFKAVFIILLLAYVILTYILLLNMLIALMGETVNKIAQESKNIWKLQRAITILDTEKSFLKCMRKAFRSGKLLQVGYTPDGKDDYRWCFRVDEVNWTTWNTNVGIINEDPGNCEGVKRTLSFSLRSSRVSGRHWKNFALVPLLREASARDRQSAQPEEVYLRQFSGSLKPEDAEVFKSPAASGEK
Chain of TRPV1 receptor (O35433 whole entry): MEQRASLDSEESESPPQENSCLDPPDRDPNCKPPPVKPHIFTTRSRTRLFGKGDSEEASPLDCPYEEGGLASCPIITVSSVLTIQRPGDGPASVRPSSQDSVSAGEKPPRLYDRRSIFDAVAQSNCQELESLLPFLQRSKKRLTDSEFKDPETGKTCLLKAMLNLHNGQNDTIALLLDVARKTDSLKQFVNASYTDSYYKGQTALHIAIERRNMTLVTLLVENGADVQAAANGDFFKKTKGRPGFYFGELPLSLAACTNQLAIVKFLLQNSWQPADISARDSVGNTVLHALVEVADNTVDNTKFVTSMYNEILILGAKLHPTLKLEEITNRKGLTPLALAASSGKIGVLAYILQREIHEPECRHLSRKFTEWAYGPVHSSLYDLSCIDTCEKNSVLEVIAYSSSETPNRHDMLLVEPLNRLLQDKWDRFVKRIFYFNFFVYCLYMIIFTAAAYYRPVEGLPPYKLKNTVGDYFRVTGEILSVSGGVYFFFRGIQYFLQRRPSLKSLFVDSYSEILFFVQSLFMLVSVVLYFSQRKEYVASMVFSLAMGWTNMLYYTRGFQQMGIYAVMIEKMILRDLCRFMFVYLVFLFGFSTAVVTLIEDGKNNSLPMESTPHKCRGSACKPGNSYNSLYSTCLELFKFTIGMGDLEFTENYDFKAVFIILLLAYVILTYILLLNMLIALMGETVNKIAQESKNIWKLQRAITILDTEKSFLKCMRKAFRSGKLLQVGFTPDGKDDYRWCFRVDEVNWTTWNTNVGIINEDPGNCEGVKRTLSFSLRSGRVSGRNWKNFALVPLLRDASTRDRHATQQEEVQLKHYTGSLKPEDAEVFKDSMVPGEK

aqueous solubility at pH 1.2 (Aqueous solubility) [μM]	aqueous solubility at pH 6.8 (Aqueous solubility) [μM]	Structure (SMILES)	further results
> 50	> 50	O=C(Nc1ccc(C(F)(F)F)cc1)N1CCC(F)(c2ncc([C@H](O)CO)cc2F)CC1 [Compound N6]	–
–	–	O=C(Nc1ccc(C(F)(F)F)cc1)N1CCC(F)(c2ncccc2Cl)CC1 [Compound 203]	aqueous solubility at pH 6.8 (in words) (Aqueous solubility): insoluble
–	–	O=C(Nc1ccc(OC(F)(F)F)c(-c2ccccc2)c1)N1CC=C(c2ncc(CO)cc2Cl)CC1 [Compound D3]	IC50 (human TRPV1): 565 ± 58.6 nM
> 50	> 50	O=C(O)Cc1cnc(C2=CCN(C(=O)Nc3ccc(C(F)(F)F)cc3)CC2)c(Cl)c1 [Compound G6]	–
> 50	> 50	CN(C)Cc1cnc(C2=CCN(C(=O)Nc3ccc(C(F)(F)F)cc3)CC2)c(Cl)c1 [Compound H6]	–
> 50	26.4	O=C(Nc1ccc(C(F)(F)F)c(Cl)c1)N1CC=C(c2ncc([C@H](O)CO)cc2F)CC1 [Compound U3]	–
> 50	38.2	CC(O)c1cnc(C2=CCN(C(=O)Nc3ccc(C(F)(F)F)cc3)CC2)c(Cl)c1 (centres unmarked) [Compound G2]	–
–	–	CC(C)S(=O)(=O)c1ccc(NC(=O)N2CC=C(c3ncc(CO)cc3Cl)CC2)cc1 [Compound K3]	IC50 (human TRPV1): > 10000 nM
–	–	O=C(Nc1ccc(C(F)(F)F)c(Cl)c1)N1CCC(F)(c2ncc([C@H](O)CO)cc2F)CC1 [Compound Q3]	IC50 (human TRPV1): 14.3 ± 1.3 nM
1.3	0.4	O=C(Nc1ccc(OC(F)(F)F)cc1)N1CCC(F)(c2ncccc2Cl)CC1 [Compound 211]	–
> 50	> 50	O=C(Nc1ccc(S(=O)(=O)C(F)(F)F)cc1)N1CCC(F)(c2ncc([C@H](O)CO)cc2Cl)CC1 [Compound H1]	–
–	–	CC(C)(C)c1ccc(NC(=O)N2CC=C(c3ncc([C@@H](O)CO)cc3Cl)CC2)cc1 [Compound E1]	IC50 (human TRPV1): 18.5 ± 4.9 nM
> 50	22.6	O=C(Nc1ccc(C(F)(F)F)c(F)c1)N1CCC(F)(c2ncc([C@H](O)CO)cc2Cl)CC1 [Compound F1]	–
> 50	9.2	COC(=O)Cc1cnc(C2=CCN(C(=O)Nc3ccc(C(F)(F)F)cc3)CC2)c(Cl)c1 [Compound F6]	–
9.3	1.0	O=C(Nc1ccc(C(F)(F)F)c(F)c1)N1CCC(F)(c2ncccc2Cl)CC1 [Compound 209]	–
> 50	1.8	O=C(Nc1ccc(OC(F)(F)F)cc1)N1CC=C(c2ncccc2Cl)CC1 [Compound 214]	–
> 50	15.7	O=C(Nc1ccc(OC(F)(F)F)cc1)N1CCC(F)(c2ncc([C@H](O)CO)cc2Cl)CC1 [Compound C1]	–

aqueous solubility at pH 1.2 (Aqueous solubility) [μM]	aqueous solubility at pH 6.8 (Aqueous solubility) [μM]	Structure (SMILES)	further results
10.3	1.9	O=C(Nc1ccc(C(F)(F)F)c(F)c1)N1CCC(F)(c2ncccc2F)CC1 [Compound 212]	–
> 50	> 50	O=C(Nc1ccc(C(F)(F)F)c(F)c1)N1CC=C(c2ncc([C@H](O)CO)cc2Cl)CC1 [Compound S1, (S)-3-Chloro-5-(1,2-dihydroxy-ethyl)-3′,6′-dihydro-2′H-[2,4]bipyridinyl-1′-carboxylic acid (3-fluoro-4-trifluoromethyl-phenyl)amide]	–
–	–	O=C(Nc1ccc(C(F)(F)F)cc1)N1CCC(F)(c2ncccc2F)CC1 [Compound 207]	aqueous solubility at pH 6.8 (in words) (Aqueous solubility): insoluble
–	–	O=C(Nc1ccc(C(F)(F)F)c(Cl)c1)N1CCC(F)(c2ncc([C@@H](O)CO)cc2F)CC1 [Compound P5]	IC50 (human TRPV1): 49.5 nM
> 50	> 50	O=C(Nc1ccc(C(F)(F)F)cc1)N1CC=C(c2ncc([C@H](O)CO)cc2Cl)CC1 [Compound Z1, (S)-3-Chloro-5-(1,2-dihydroxy-ethyl)-3′,6′-dihydro-2′H-[2,4]bipyridinyl-1′-carboxylic acid (4-trifluoromethyl-phenyl)amide]	time to maximum plasma concentration after administration ([1]; animal plasma): 2.5 h; maximum plasma concentration relative to the maximum for compound 200 ([1]; animal plasma, for a given dose): 2.5 times; plasma concentration up to 24 h compared with compound 200 ([1]; up to 24 h): consistently greater
–	–	O=C(Nc1ccc(C(F)(F)F)cc1)N1CC=C(c2ncccc2F)CC1 [Compound 208]	aqueous solubility at pH 6.8 (in words) (Aqueous solubility): insoluble
> 50	17.4	O=C(Nc1ccc(C(F)(F)F)c(F)c1)N1CCC(F)(c2ncc([C@H](O)CO)cc2F)CC1 [Compound Y3]	–
> 50	> 50	O=C(Nc1ccc(C(F)(F)F)cc1)N1CC=C(c2ncc(CO)cc2Cl)CC1 [Compound J2]	–
2.0	0.4	O=C(Nc1ccc(S(=O)(=O)C(F)(F)F)cc1)N1CCC(F)(c2ncccc2Cl)CC1 [Compound 210]	–
1.0	3.0	CCOC(=O)c1cnc(C2=CCN(C(=O)Nc3ccc(C(F)(F)F)cc3)CC2)c(Cl)c1 [Compound F2]	–
39.6	0.8	O=C(Nc1ccc(C(F)(F)F)c(F)c1)N1CC=C(c2ncccc2Cl)CC1 [Compound 213]	–
> 50	> 50	O=C(Nc1ccc(OC(F)(F)F)cc1)N1CC=C(c2ncc([C@H](O)CO)cc2Cl)CC1 [Compound E2]	–
–	–	O=C1C=C(c2ncc([C@H](O)CO)cc2Cl)CCN1C(=O)Nc1ccc(C(F)(F)F)cn1 [Compound C6]	IC50 (human TRPV1): > 25000 nM
> 50	> 50	O=C(Nc1ccc(C(F)(F)F)cc1)N1CC=C(c2ncc([C@H](O)CO)cc2F)CC1 [Compound U1]	–
–	–	O=C(O)c1cnc(C2=CCN(C(=O)Nc3ccc(C(F)(F)F)cc3)CC2)c(Cl)c1 [Compound M5]	IC50 (human TRPV1): > 25000 nM
< 0.1	< 0.1	O=C(Nc1ccc(C(F)(F)F)cc1)N1CC=C(c2ncccc2Cl)CC1 [Compound 200]	time to maximum plasma concentration after administration ([1]; animal plasma): 3.1 h; aqueous solubility at pH 6.8 (in words) (Aqueous solubility): insoluble
9.6	0.6	O=C(Nc1ccc(C(F)(F)F)c(Cl)c1)N1CC=C(c2ncccc2F)CC1 [Compound 215]	–

Structure (SMILES)	aqueous solubility at pH 1.2 (Aqueous solubility) [μM]	aqueous solubility at pH 6.8 (Aqueous solubility) [μM]	further results
O=C(Nc1ccc(C(F)(F)F)cc1)N1CCC(F)(c2ncc([C@H](O)CO)cc2Cl)CC1 [Compound N1, (S)-4-(3-chloro-5-(1,2-dihydroxyethyl)pyridin-2-yl)-4-fluoro-N-(4-(trifluoromethyl)phenyl)piperidine-1-carboxamide]	> 50	28.0	decrease of eye wipes relative to pre-administration value (TRPV1 receptor; 1 hour after administration): 87.5%; number of capsaicin-induced eye wipes (TRPV1 receptor; 1 hour after administration): 3; decrease of eye wipes relative to pre-administration value (TRPV1 receptor; 3 hours after administration): 96%; number of capsaicin-induced eye wipes (TRPV1 receptor; 3 hours after administration): 1; decrease of eye wipes relative to pre-administration value (TRPV1 receptor; 5 hours after administration): 92%; number of capsaicin-induced eye wipes (TRPV1 receptor; 5 hours after administration): 2
